Data reported in ChEMBL document CHEMBL2375354, “Total synthesis of the marine cyclic depsipeptide viequeamide a” (J Nat Prod, 2013).
Numbered stars: 1 amine (or outer) side, 2 acyl side, 3 side chain; on linkers, the order of the positions; unused ones are H or OH. Bridge positions count the residues as written; N and C are the ends. Square brackets hold non-standard residues; d marks the D form. Peptide text beside a SMILES is read from it. X1 = C#CCCC[C@H](O[*:2])C(C)(C)C(=O)[*:1]; Hmp(2R,3S) = CC[C@H](C)[C@@H](O)C(=O)O; NMeV = CN[C@H](C(=O)O)C(C)C

Key:
[1] = Cytotoxicity against human KB/VCR cells by SRB assay; format: functional, cell-based
[2] = Cytotoxicity against human H460 cells by SRB assay; format: functional, cell-based; conditions: NCI-H460
KB = test: Cytotoxicity against human KB cells by SRB assay; format: functional, cell-based
A549 = test: Cytotoxicity against human A549 cells by SRB assay; format: functional, cell-based
[3] = Stability of the compound in DMSO by HPLC analysis; format: physicochemical

Stability [3]: Unstable
SMILES: C#CCCC[C@@H]1OC(=O)[C@H]([C@@H](C)O)NC(=O)[C@H](C(C)C)N(C)C(=O)[C@@H]2CCCN2C(=O)[C@@H]([C@@H](C)CC)OC(=O)[C@H](C(C)C)N(C)C(=O)[C@H](C(C)C)NC(=O)C1(C)C [VIEQUEAMIDE A] (V[NMeV][Hmp(2R,3S)]P[NMeV]T; linker N-C via X1)
IC50 [1]: < 100 µM
IC50 [2]: < 100 µM
IC50 (KB): < 100 µM
IC50 (A549): < 100 µM
